Earlier results, collected in patent US8268549B2, “Method and assay for determining methylation of GAL3 promoter for early diagnosis of prostate cancer” (University of Maryland, Baltimore, priority 2005, dated 2012).

Tested on: galectins

Question: For `O=C[C@H](O)[C@@H](O)[C@@H](O)[C@H](O)CO` [D-galactose], which “relative binding affinity, times less effective than lactose (Lac)” value (galectins) is on record?
Answer: ~200 times

Question: Which “ligand quality for chimera galectins” value (chimera galectins) does the source give for `CC(=O)N[C@@H]1[C@@H](O[C@@H]2O[C@H](CO)[C@H](O)[C@H](O)[C@H]2O)[C@@H](O)[C@@H](CO)O[C@@H]1O` [T-disaccharide] here?
Answer: good ligand
